# In ChEMBL document CHEMBL3865842, “Spirobisnaphthalenes and lactones from the seeds of Strychnos angustiflora with potential anti-inflammatory activity” (Bioorg Med Chem Lett, 2016):
# Legend:
# BV-2 = experiment: Inhibition of LPS-induced nitric oxide production in mouse BV2 cells pretreated for 1 hr before LPS stimulation measured after 24 hrs by Griess assay; assay type: functional, cell-based
# [1] = Cytotoxicity against human A2780 cells at 10 uM measured after 72 hrs by MTT assay; assay type: toxicity, cell-based; details: a2780, 72 h
# [2] = Cytotoxicity against human NCI-H1650 cells at 10 uM measured after 72 hrs by MTT assay; assay type: toxicity, cell-based; details: nci-h1650, 72 h
# [3] = Cytotoxicity against human BGC823 cells at 10 uM measured after 72 hrs by MTT assay; assay type: toxicity, cell-based; details: bgc-823, 72 h
# [4] = Cytotoxicity against human HepG2 cells at 10 uM measured after 72 hrs by MTT assay; assay type: toxicity, cell-based; details: hepg2, 72 h
# [5] = Cytotoxicity against human HCT116 cells at 10 uM measured after 72 hrs by MTT assay; assay type: toxicity, cell-based; details: hct-116, 72 h
Structure (SMILES),IC50 (BV-2),Activity [1],Activity [2],Activity [3],Activity [4],Activity [5]
COc1cc(O)cc2c1C(=O)O[C@@H](C)CCC[C@H](O)CCC2,87.1 µM,Non-Toxic,Non-Toxic,Non-Toxic,Non-Toxic,Non-Toxic
CO[C@@H]1CC(=O)c2cccc3c2[C@@]12Oc1ccc(O)c4c1[C@](O3)(O2)[C@@H]1O[C@@H]1[C@@H]4O [PREUSSOMERIN C],1.16 µM,Non-Toxic,Non-Toxic,Non-Toxic,Non-Toxic,Non-Toxic
COc1cc(O)cc2c1C(=O)O[C@@H](C)CCCCCCC2 [LASIODIPLODIN],> 100 µM,Non-Toxic,Non-Toxic,Non-Toxic,Non-Toxic,Non-Toxic
O=C1C[C@@H](O)[C@]23Oc4cccc5c4[C@](CC[C@@H]5O)(Oc4ccc(O)c1c42)O3,> 100 µM,Non-Toxic,Non-Toxic,Non-Toxic,Non-Toxic,Non-Toxic
COc1cc(/C=C/C(=O)CC(=O)/C=C/c2ccc(O)c(OC)c2)ccc1O [CURCUMIN],1.42 µM,,,,,
COc1cc(O)cc2c1C(=O)O[C@@H](C)CCC[C@@H](O)CCC2,> 100 µM,Non-Toxic,Non-Toxic,Non-Toxic,Non-Toxic,Non-Toxic
O=C1CC[C@]23Oc4ccc(O)c5c4[C@](Oc4cccc1c42)(O3)[C@H](O)CC5=O,> 100 µM,Non-Toxic,Non-Toxic,Non-Toxic,Non-Toxic,Non-Toxic

# The next lines start with results.
IC50 (BV-2),Structure (SMILES),Activity [1],Activity [2],Activity [3],Activity [4],Activity [5]
2.05 µM,Oc1cccc2c1[C@@H](O)[C@H]1O[C@H]1C21Oc2cccc3cccc(c23)O1,Non-Toxic,Non-Toxic,Non-Toxic,Non-Toxic,Non-Toxic
4.85 µM,Oc1cccc2c1[C@H](O)[C@@H]1O[C@@H]1C21Oc2cccc3cccc(c23)O1,Non-Toxic,Non-Toxic,Non-Toxic,Non-Toxic,Non-Toxic
25.7 µM,CO[C@H]1c2c(O)cccc2C2(Oc3cccc4cccc(c34)O2)[C@H](O)[C@H]1O,Non-Toxic,Non-Toxic,Non-Toxic,Non-Toxic,Non-Toxic
67.6 µM,Oc1cccc2c1[C@H](O)C[C@@H](O)C21Oc2cccc3cccc(c23)O1,Non-Toxic,Non-Toxic,Non-Toxic,Non-Toxic,Non-Toxic
> 100 µM,Oc1cccc2c1[C@@H](O)[C@H](O)[C@@H](O)C21Oc2cccc3cccc(c23)O1,Non-Toxic,Non-Toxic,Non-Toxic,Non-Toxic,Non-Toxic
11.7 µM,O=C1CC[C@]23Oc4ccc(O)c5c4[C@](Oc4cccc1c42)(O3)[C@@H]1O[C@@H]1[C@@H]5O,Non-Toxic,Non-Toxic,Non-Toxic,Non-Toxic,Non-Toxic
